Measured values taken from article PMC8148055 (Acta Pharmaceutica Sinica. B, 2020).

Target: sirtuin 6 (SIRT6) (Homo sapiens, UniProt Q8N6T7)
Assay: Fluor de Lys deacetylation assay
Type: biochemical

sirtuin 6 (SIRT6), sequence (Q8N6T7 2-355): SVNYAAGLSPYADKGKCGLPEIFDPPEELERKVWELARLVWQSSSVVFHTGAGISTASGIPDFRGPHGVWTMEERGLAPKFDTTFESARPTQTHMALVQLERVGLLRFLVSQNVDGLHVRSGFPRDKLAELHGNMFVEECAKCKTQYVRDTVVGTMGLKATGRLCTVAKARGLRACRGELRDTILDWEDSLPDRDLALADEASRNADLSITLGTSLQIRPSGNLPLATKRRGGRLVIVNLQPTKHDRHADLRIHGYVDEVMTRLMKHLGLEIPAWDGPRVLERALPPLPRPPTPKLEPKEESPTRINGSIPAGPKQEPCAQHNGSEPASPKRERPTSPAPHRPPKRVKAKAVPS

MDL-801-E1
Fluor de Lys deacetylation assay (about 4-fold activation): ~ 4 fold
